Source: patent publication US9732061B2, “Cinnoline derivatives useful as CB-1 receptor inverse agonists” (Janssen Pharmaceutica NV, priority 2015, dated 2017)

Experiments:
[1] = molecular target: Human CB2R (Cannabanoid receptor 2) (Homo sapiens (Human), UniProt P34972); experiment: CB-2 in vitro cAMP (HTRF) assay; assay type: cell-based; conditions: HEK-293 cells stably transfected with human CB2R, 250 nM Forskolin, mean where tested more than once
Description: (§1) CB1 and CB2 receptors are Gi-coupled GPCR. Activation of CB1 and CB2 receptors results in a decrease in cAMP production. An inverse agonist of the CB1 or CB2 receptor results in the opposite effect, an increase of cAMP production. The principle of this assay is based on HTRF® technology (Homogeneous Time-Resolved Fluorescence). The method is a competitive immunoassay between native cAMP produced by cells and the cAMP labeled with the fluorophore d2. The tracer binding is quantified by a Mab anti-cAMP labeled with Eu3+TBP-NHS Cryptate (supplied as part of the assay kit). The specific signal (i.e. energy transfer) is inversely proportional to the concentration of cAMP in the standard or sample.
(§2) Biological Example 1: CB-1 and CB-2 In Vitro Assay
(§3) Human CB1R (Cannabanoid receptor 1) was stably transfected in HEK-293 cells (DiscoveRx, cat: 93-0200C1). Human CB2R (Cannabanoid receptor 2) was stably transfected in HEK-293 cells (DiscoveRx, cat: 93-0201C1). Cell cultures were maintained in media: DMEM (Invitrogen Cat#12430-054) supplemented with 10% HI FBS (Invitrogen Cat#16140-071), 1% L-glutamine (Invitrogen Cat#25030-081), 0.2 mg/ml Hygromycin B (Invitrogen Cat#10687-010), 600 μg/mL G418 (Invitrogen Cat#10131-035), and 1×Penn/Strep (Invitrogen 15140-122). After cell expansion, aliquots were cryo-stored in media containing 5% DMSO (Pierce Cat#20684).
(§4) One day prior to experiments media was warmed to 37° C. and the cryo-stored cells were thawed in a 37° C. water bath. The cells were then added to media (10× volume) and the mixture was centrifugated at 1000 RPM for 5 min. The supernate was removed and the cells were re-suspended in media. A sample of the cell suspension was evaluated on a Cedex XS automated cell counter (Innovatis Systems) to determine viable cells/ml. Additional media was added to the cells to achieve a final cell density of 4E5 cells/mL. The cells were then plated into 384 well PDL white solid bottom plates (Greiner, Cat#781945) at 20 μL per well using a Multidrop (Thermo Scientific). Cells were removed from Row P (location of cAMP standards). Two columns of cells were plated into a clear bottom 384 well PDL coated plate (Greiner, Cat#781944) to view confluence the day of the assay. The cell plates were lidded and stored for 15 minutes in a hood, then transferred to an incubator (37° C., 5% CO2, 95% humidity) overnight.
(§5) DMSO was added to all wells of 384 well V bottom polystyrene plate (Greiner, Cat#781280) except to columns 1 and 13, rows O and P and wells M13-M23 and N13-N23. Test compounds (60 μL, 10 mM) were added to Column 1 and 13 (A1 through N1 and A13 through L13). Test compounds were serially diluted 1/3 by transferring and mixing 20 μl sample with 40 μL DMSO.
(§6) DMSO (40 μL) was added to wells of 384 well V bottom polystyrene plate: O2 through O11, M14 through M23, N14 through N23, and O14 through O23. AM630 (also known as [6-iodo-2-methyl-1-[2-(4-morpholinyl)ethyl]-1H-indol-3-yl](4-methoxyphenyl)-methanone, Cayman Chemical, Cat#10006974) (60 μL, 10 mM) was added to O1; and 1-(2,4-dichlorophenyl)-7-[(4-fluorophenyl)methylene]-4,5,6,7-tetrahydro-N-1-piperidinyl-1H-indazole-3-carboxamide (60 μL, 10 mM) was added to N13. The control was serially diluted 1/3 by transferring and mixing 20 μl sample with 40 μL DMSO. This process resulted 11 doses per control, 10 mM to […].
(§7) Cells plated the day prior to the assay in clear bottom plates were viewed on an inverse microscope to ensure confluency in the range of 60-75%. […]

[2] = molecular target: Human CB1R (Cannabanoid receptor 1) (Homo sapiens (Human), UniProt P21554); experiment: CB-1 in vitro cAMP (HTRF) assay; assay type: cell-based; conditions: HEK-293 cells stably transfected with human CB1R, 250 nM Forskolin, mean where tested more than once
Human CB1R (Cannabanoid receptor 1), sequence (P21554 whole entry): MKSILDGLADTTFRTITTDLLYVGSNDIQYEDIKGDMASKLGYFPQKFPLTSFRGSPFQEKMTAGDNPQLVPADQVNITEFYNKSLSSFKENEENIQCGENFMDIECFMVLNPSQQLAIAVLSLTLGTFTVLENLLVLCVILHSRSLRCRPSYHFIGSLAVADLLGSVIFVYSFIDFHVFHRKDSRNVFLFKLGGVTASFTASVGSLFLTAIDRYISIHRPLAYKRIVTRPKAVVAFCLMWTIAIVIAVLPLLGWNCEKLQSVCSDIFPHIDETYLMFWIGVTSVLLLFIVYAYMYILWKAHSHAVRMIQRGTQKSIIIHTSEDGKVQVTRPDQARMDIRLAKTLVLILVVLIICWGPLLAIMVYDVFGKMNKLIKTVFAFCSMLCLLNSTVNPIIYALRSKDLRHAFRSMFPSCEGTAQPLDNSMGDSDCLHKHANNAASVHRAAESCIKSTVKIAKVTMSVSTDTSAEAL
Description: as §1, §2, §3, §4, §5, §6, §7

Human CB2R (Cannabanoid receptor 2), sequence (P34972 whole entry): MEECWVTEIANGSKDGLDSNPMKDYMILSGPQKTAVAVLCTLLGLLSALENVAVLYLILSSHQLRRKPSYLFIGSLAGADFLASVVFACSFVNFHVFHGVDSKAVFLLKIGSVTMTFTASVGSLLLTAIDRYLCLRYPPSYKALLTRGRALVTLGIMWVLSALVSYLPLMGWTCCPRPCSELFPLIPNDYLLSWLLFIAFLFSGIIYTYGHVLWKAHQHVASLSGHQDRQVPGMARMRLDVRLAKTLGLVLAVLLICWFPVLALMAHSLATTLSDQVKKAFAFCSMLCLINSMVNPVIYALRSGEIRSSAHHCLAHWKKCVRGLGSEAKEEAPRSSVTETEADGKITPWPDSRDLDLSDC

Q: With `O=C(O)c1ccccc1S(=O)(=O)N1CCC(Nc2cnnc3ccc(C(c4ccc(Cl)cc4)c4ccc(Cl)cc4)cc23)CC1` [Compound 19, 2-(4-(6-(bis(4-chlorophenyl)methyl)cinnolin-4-ylamino)piperidin-1-ylsulfonyl)benzoic acid] as the molecule, how does the EC50 [1] read?
A: > 10 µM

Q: What about the EC50 [2] of the same molecule?
A: 5940 nM

Q: For `O=C(O)c1ccc(S(=O)(=O)N2CCC(Nc3cnnc4ccc(C(c5ccc(Cl)cc5)c5ccc(Cl)cc5)cc34)CC2)cc1` [Compound 10, 4-(4-(6-(bis(4-chlorophenyl)methyl)cinnolin-4-ylamino)piperidin-1-ylsulfonyl)benzoic acid], which EC50 [1] is on record?
A: 1.48 µM

Q: What about the EC50 [2] of the same molecule?
A: 302 nM

Q: For `O=C(c1ccccc1)N1CCC(Nc2cnnc3ccc(C(c4ccc(Cl)cc4)c4ccc(Cl)cc4)cc23)CC1` [Compound 3, (4-((6-(bis(4-chlorophenyl)methyl)cinnolin-4-yl)amino)piperidin-1-yl)(phenyl)methanone], which EC50 [1] is on record?
A: > 10 µM

Q: What about the EC50 [2] of the same molecule?
A: 463 nM

Q: For `O=C(O)c1ccc(S(=O)(=O)N2CCC(Nc3cnnc4ccc(C(c5ccc(Cl)cc5)c5ccc(Cl)cc5)cc34)CC2)s1` [Compound 16, 5-(4-(6-(bis(4-chlorophenyl)methyl)cinnolin-4-ylamino)piperidin-1-ylsulfonyl)thiophene-2-carboxylic acid], which EC50 [1] is on record?
A: 2.15 µM

Q: What about the EC50 [2] of the same molecule?
A: 262 nM

Q: For `OC(c1ccc(Cl)cc1)(c1ccc(Cl)cc1)c1ccc2nncc(NCc3ccc(C(F)(F)F)cc3)c2c1` [Compound 7, bis(4-chlorophenyl)(4-((4-(trifluoromethyl)benzyl)amino)cinnolin-6-yl)methanol], which EC50 [1] is on record?
A: > 10 µM

Q: What about the EC50 [2] of the same molecule?
A: 219 nM

Q: How did the EC50 [1] turn out when `O=C(O)c1ccc(N2CCC(Nc3cnnc4ccc(C(c5ccc(Cl)cc5)c5ccc(Cl)cc5)cc34)CC2)cc1` [Compound 17, 4-(4-(6-(bis(4-chlorophenyl)methyl)cinnolin-4-ylamino)piperidin-1-yl)benzoic acid] was run?
A: 8.1 µM

Q: And the EC50 [2]?
A: 10100 nM

Q: `O=C(O)c1ccc(S(=O)(=O)N2CCC(Nc3cnnc4ccc(C(c5ccc(Cl)cc5)c5ccc(Cl)cc5)cc34)CC2)o1` [Compound 14, 5-(4-(6-(bis(4-chlorophenyl)methyl)cinnolin-4-ylamino)piperidin-1-ylsulfonyl)furan-2-carboxylic acid] was tested. Which EC50 [1] did it give?
A: 5.6 µM

Q: And the EC50 [2]?
A: 1280 nM

Q: `Clc1ccc(C(c2ccc(Cl)cc2)c2ccc3nncc(NCCc4ccccc4)c3c2)cc1` [Compound 25, 6-(bis(4-chlorophenyl)methyl)-N-phenethylcinnolin-4-amine] was tested. Which EC50 [1] did it give?
A: 2.46 µM

Q: And the EC50 [2]?
A: 35 nM

Q: For `O=S(=O)(N1CCC(Nc2cnnc3ccc(C(c4ccc(F)cc4)c4ccc(F)cc4)cc23)CC1)C(F)(F)F` [Compound 33, 6-(bis(4-fluorophenyl)methyl)-N-(1-(trifluoromethylsulfonyl)piperidin-4-yl)cinnolin-4-amine], which EC50 [1] is on record?
A: 4.7 µM

Q: And the EC50 [2]?
A: 79 nM

Q: `O=C(O)c1cccc(S(=O)(=O)N2CCC(Nc3cnnc4ccc(C(c5ccc(Cl)cc5)c5ccc(Cl)cc5)cc34)CC2)c1` [Compound 11, 3-(4-(6-(bis(4-chlorophenyl)methyl)cinnolin-4-ylamino)piperidin-1-ylsulfonyl)benzoic acid] was tested. Which EC50 [1] did it give?
A: 5.25 µM

Q: And the EC50 [2]?
A: 181 nM

Q: Which EC50 [1] does the source give for `CC(C)(C)OC(=O)N1CCC(Nc2cnnc3ccc(C(O)(c4ccc(Cl)cc4)c4ccc(Cl)cc4)cc23)CC1` [Compound 2, tert-butyl 4-((6-(bis(4-chlorophenyl)(hydroxy)methyl)cinnolin-4-yl)amino)piperidine-1-carboxylate] here?
A: > 10 µM

Q: And the EC50 [2]?
A: 200 nM

Q: With `O=C(O)c1cccc(CCNc2cnnc3ccc(C(c4ccc(Cl)cc4)c4ccc(Cl)cc4)cc23)c1` [Compound 38, 3-(2-(6-(bis(4-chlorophenyl)methyl)cinnolin-4-ylamino)ethyl)benzoic acid] as the molecule, how does the EC50 [1] read?
A: 3.98 µM

Q: What about the EC50 [2] of the same molecule?
A: 4500 nM

Q: Which EC50 [1] does the source give for `O=C(O)c1ccc(CN2CCC(Nc3cnnc4ccc(C(c5ccc(Cl)cc5)c5ccc(Cl)cc5)cc34)CC2)cc1` [Compound 13, 4-((4-(6-(bis(4-chlorophenyl)methyl)cinnolin-4-ylamino)piperidin-1-yl)methyl)benzoic acid] here?
A: > 10 µM

Q: What about the EC50 [2] of the same molecule?
A: 1440 nM

Q: How did the EC50 [1] turn out when `Clc1ccc(C(c2ccc(Cl)cc2)c2ccc3nncc(N4CCN(Cc5ccccc5)CC4)c3c2)cc1` [Compound 22, 4-(4-benzylpiperazin-1-yl)-6-(bis(4-chlorophenyl)methyl)cinnoline] was run?
A: > 10 µM

Q: What about the EC50 [2] of the same molecule?
A: 6540 nM
